Assay results published in patent publication US20210355104A1, “ADENOSINE RECEPTOR BINDING COMPOUNDS” (Nikang Therapeuticsm Inc., priority 2018, published 2021).
Values joined by “and” are separate entries in the source; they are usually repeats but may differ in a detail not shown here. Equal entries are not always repeated.

Molecular target: Adenosine A2A receptor (Homo sapiens, UniProt P29274)
Assay: Adenosine A2A receptor competitive binding assay (Tag-lite HTRF)
Settings: Tag-lite adenosine A2A receptor ligand binding, 2 h room temperature; values separated by / are repeat determinations
Protocol: Adenosine A2A Receptor Competitive Binding Assay
The Tag-lite adenosine A2A receptor ligand binding assay is a homogeneous alternative to radioligand binding assay and developed by Cisbio (Bedford, Mass.). We carried out this assay following Cisbio's instructions with minor modification. Pre-transfected, fluorescent donor-labelled cells (Cisbio Cat#: C1TT1A2A, 200 testes) was stored at −80° C. and thawed right before use. Cells were washed once with 5 ml TLB and gently resuspended in 2 ml TLB. 4 μl suspended cells was dispensed into each well of white low-volume 384-well plate (Greiner Bio-One). Serial dilutions of compounds were prepared in Tag-lite buffer (TLB, Cisbio Cat #: LABMED) to a DMSO concentration of 0.6%. After adding 4 μl of compound dilutions to each well, 4 μl60 nM Adenosine A2A receptor red antagonist fluorescent ligand (Cisbio Cat #: L0058RED) was dispensed to each well. The 384-well assay plate was centrifuged briefly and incubated at room temperature for 2 h. HTRF signals were measured using CIARIOstar plate reader (BMG Labtech).

Sequence of Adenosine A2A receptor (P29274 whole entry): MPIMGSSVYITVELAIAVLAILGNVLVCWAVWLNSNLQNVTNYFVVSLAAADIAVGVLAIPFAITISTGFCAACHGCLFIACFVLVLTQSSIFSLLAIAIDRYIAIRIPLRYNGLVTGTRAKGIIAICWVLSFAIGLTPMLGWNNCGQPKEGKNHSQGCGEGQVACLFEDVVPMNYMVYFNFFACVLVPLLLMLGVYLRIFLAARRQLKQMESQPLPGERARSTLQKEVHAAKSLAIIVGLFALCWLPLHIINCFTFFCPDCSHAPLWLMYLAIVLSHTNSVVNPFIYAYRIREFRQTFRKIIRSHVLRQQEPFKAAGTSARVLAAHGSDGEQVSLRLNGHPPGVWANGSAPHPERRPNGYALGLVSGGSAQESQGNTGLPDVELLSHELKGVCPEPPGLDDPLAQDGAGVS

Row | IC50 | Structure (SMILES)
1 | 0.433 µM | CCN(CC)C(=O)CCc1nc(N)nc(-c2ccccc2)c1-c1cc(C)nc(C(F)(F)F)c1 [Example 18, 3-(2-amino-5-(2-methyl-6-(trifluoromethyl)pyridin-4-yl)-6-phenylpyrimidin-4-yl)-N,N-diethylpropanamide]
2 | 0.052 µM | Cc1cc(-c2c(CO)nc(N)nc2-c2ccccc2)cc(C(F)(F)F)n1 [Example 19, (2-amino-5-(2-methyl-6-(trifluoromethyl)pyridin-4-yl)-6-phenylpyrimidin-4-yl)methanol]
3 | 0.0266 µM | CC(=O)N1CCN(c2ccc(CCOc3nc(N)nc(-c4ccccc4)c3-c3cc(C)nc(C(F)(F)F)c3)cc2)CC1 [Example 20, 1-(4-(4-(2-((2-amino-5-(2-methyl-6-(trifluoromethyl)pyridin-4-yl)-6-phenylpyrimidin-4-yl)oxy)ethyl)phenyl)piperazin-1-yl)ethan-1-one]
4 | 0.111 µM | CCN(CC)C(=O)OCc1nc(N)nc(-c2ccccc2)c1-c1cc(C)nc(C(F)(F)F)c1 [Example 21, (2-amino-5-(2-methyl-6-(trifluoromethyl)pyridin-4-yl)-6-phenylpyrimidin-4-yl)methyl diethylcarbamate]
5 | 1.78 µM | CNCc1nc(N)nc(-c2ccccc2)c1-c1cc(C)nc(C(F)(F)F)c1 [Example 22, 5-(2-methyl-6-(trifluoromethyl)pyridin-4-yl)-4-((methylamino)methyl)-6-phenylpyrimidin-2-amine]
6 | 1.78 µM | Cc1cc(-c2c(CN(C)C)nc(N)nc2-c2ccccc2)cc(C(F)(F)F)n1 [Example 23, 4-((dimethylamino)methyl)-5-(2-methyl-6-(trifluoromethyl)pyridin-4-yl)-6-phenylpyrimidin-2-amine]
7 | 0.118 µM | Cc1cc(-c2c(CNCC(F)(F)F)nc(N)nc2-c2ccccc2)cc(C(F)(F)F)n1 [Example 24, 5-(2-methyl-6-(trifluoromethyl)pyridin-4-yl)-4-phenyl-6-(((2,2,2-trifluoroethyl)amino)methyl)pyrimidin-2-amine]
8 | 0.032 µM | CC(=O)N1CCC(Oc2ccc(CCOc3nc(N)nc(-c4ccccc4)c3-c3cc(C)nc(C(F)(F)F)c3)cc2)C1 (stereo not drawn) [Example 25, 1-(3-(4-(2-((2-amino-5-(2-methyl-6-(trifluoromethyl)pyridin-4-yl)-6-phenylpyrimidin-4-yl)oxy)ethyl)phenoxy)pyrrolidin-1-yl)ethan-1-one]
9 | 0.043 µM and 0.0268 µM | Cc1cc(-c2c(OCCc3ccc(N4CCC(=O)CC4)cc3)nc(N)nc2-c2ccccc2)cc(C(F)(F)F)n1 [Example 26, 1-(4-(2-((2-amino-5-(2-methyl-6-(trifluoromethyl)pyridin-4-yl)-6-phenylpyrimidin-4-yl)oxy)ethyl)phenyl)piperidin-4-one]
10 | 0.0159 µM | CCN(CC)C(=O)COc1nc(N)nc(-c2ccc(F)cc2)c1-c1cc(C)nc(C(F)(F)F)c1 [Example 27, 2-[[2-amino-6-(4-fluorophenyl)-5-[2-methyl-6-(trifluoromethyl)pyridin-4-yl]pyrimidin-4-yl]oxy]-N,N-diethylacetamide]
11 | 0.00995 µM | CCN(CC)C(=O)CNc1nc(N)nc(-c2ccccc2)c1-c1cc(C)nc(C(F)(F)F)c1 [Example 30, 2-((2-amino-5-(2-methyl-6-(trifluoromethyl)pyridin-4-yl)-6-phenylpyrimidin-4-yl)amino)-N,N-diethylacetamide]
12 | 0.00835 µM | CC(=O)N1CCN(c2ccc(CCOc3nc(N)nc(-c4ccc(F)cc4)c3-c3cc(C)nc(C(F)F)c3)cc2)CC1 [Example 31, 1-(4-[4-[2-([2-amino-5-[2-(difluoromethyl)-6-methylpyridin-4-yl]-6-(4-fluorophenyl)pyrimidin-4-yl]oxy)ethyl]phenyl]piperazin-1-yl)ethan-1-one]
13 | 0.0665 µM | Cc1cc(-c2c(OC3CCOCC3)nc(N)nc2-c2ccc(F)cc2)cc(C(F)F)n1 [Example 33, 5-(2-(difluoromethyl)-6-methylpyridin-4-yl)-4-(4-fluorophenyl)-6-((tetrahydro-2H-pyran-4-yl)oxy)pyrimidin-2-amine]
14 | 0.0453 µM | Cc1cc(-c2c(OC3COC3)nc(N)nc2-c2ccc(F)cc2)cc(C(F)F)n1 [Example 34, 5-(2-(difluoromethyl)-6-methylpyridin-4-yl)-4-(4-fluorophenyl)-6-(oxetan-3-yloxy)pyrimidin-2-amine]
15 | 0.124 µM | Cc1cc(-c2c(OCCN3CCN(C)CC3)nc(N)nc2-c2ccc(F)cc2)cc(C(F)F)n1 [Example 35, 5-(2-(difluoromethyl)-6-methylpyridin-4-yl)-4-(4-fluorophenyl)-6-(2-(4-methylpiperazin-1-yl)ethoxy)pyrimidin-2-amine]
16 | 0.0114 µM | Cc1cc(-c2c(OCCN3CCOCC3)nc(N)nc2-c2ccc(F)cc2)cc(C(F)F)n1 [Example 36, 5-(2-(difluoromethyl)-6-methylpyridin-4-yl)-4-(4-fluorophenyl)-6-(2-morpholinoethoxy)pyrimidin-2-amine]
17 | 0.0102 µM | Cc1cc(-c2c(OCC3COC3)nc(N)nc2-c2ccc(F)cc2)cc(C(F)F)n1 [Example 37, 5-(2-(difluoromethyl)-6-methylpyridin-4-yl)-4-(4-fluorophenyl)-6-(oxetan-3-ylmethoxy)pyrimidin-2-amine]
18 | 0.816 µM | CCN(CC)C(=O)CN(C)c1nc(N)nc(-c2ccccc2)c1-c1cc(C)nc(C(F)(F)F)c1 [Example 38, 2-((2-amino-5-(2-methyl-6-(trifluoromethyl)pyridin-4-yl)-6-phenylpyrimidin-4-yl)(methyl)amino)-N,N-diethylacetamide]
19 | 0.295 µM | Cc1cc(-c2c(OCC(=O)NC3CCOCC3)nc(N)nc2-c2ccc(F)cc2)cc(C(F)F)n1 [Example 40, 2-((2-amino-5-(2-(difluoromethyl)-6-methylpyridin-4-yl)-6-(4-fluorophenyl)pyrimidin-4-yl)oxy)-N-(tetrahydro-2H-pyran-4-yl)acetamide]
20 | 0.0052 µM | Cc1cc(-c2c(OCC(=O)NC3CC3)nc(N)nc2-c2ccc(F)cc2)cc(C(F)F)n1 [Example 42, 2-((2-amino-5-(2-(difluoromethyl)-6-methylpyridin-4-yl)-6-(4-fluorophenyl)pyrimidin-4-yl)oxy)-N-cyclopropylacetamide]
21 | 0.266 µM | Cc1cc(-c2c(OCC(=O)NCCN(C)C)nc(N)nc2-c2ccc(F)cc2)cc(C(F)F)n1 [Example 43, 2-((2-amino-5-(2-(difluoromethyl)-6-methylpyridin-4-yl)-6-(4-fluorophenyl)pyrimidin-4-yl)oxy)-N-(2-(dimethylamino)ethyl)acetamide]
22 | 1.21 µM | Cc1cc(-c2c(OCC(=O)NC3CCN(C)CC3)nc(N)nc2-c2ccc(F)cc2)cc(C(F)F)n1 [Example 44, 2-((2-amino-5-(2-(difluoromethyl)-6-methylpyridin-4-yl)-6-(4-fluorophenyl)pyrimidin-4-yl)oxy)-N-(1-methylpiperidin-4-yl)acetamide]
23 | 0.0213 µM | Cc1cc(-c2c(Oc3ccccc3)nc(N)nc2-c2ccc(F)cc2)cc(C(F)F)n1 [Example 47, 5-(2-(difluoromethyl)-6-methylpyridin-4-yl)-4-(4-fluorophenyl)-6-phenoxypyrimidin-2-amine]
24 | 0.0139 µM | Cc1cc(-c2c(OCCN3CCN(S(C)(=O)=O)CC3)nc(N)nc2-c2ccc(F)cc2)cc(C(F)F)n1 [Example 49, 5-(2-(difluoromethyl)-6-methylpyridin-4-yl)-4-(4-fluorophenyl)-6-(2-(4-(methylsulfonyl)piperazin-1-yl)ethoxy)pyrimidin-2-amine]
25 | 0.535 µM | Cc1cc(-c2c(OCC(=O)NCCCS(C)(=O)=O)nc(N)nc2-c2ccc(F)cc2)cc(C(F)F)n1 [Example 50, 2-((2-amino-5-(2-(difluoromethyl)-6-methylpyridin-4-yl)-6-(4-fluorophenyl)pyrimidin-4-yl)oxy)-N-(3-(methylsulfonyl)propyl)acetamide]
26 | 0.028 µM | Cc1cc(-c2c(OCCc3ccc(N4CCN(S(C)(=O)=O)CC4)cc3)nc(N)nc2-c2ccc(F)cc2)cc(C(F)F)n1 [Example 58, 5-(2-(difluoromethyl)-6-methylpyridin-4-yl)-4-(4-fluorophenyl)-6-(4-(4-(methylsulfonyl)piperazin-1-yl)phenethoxy)pyrimidin-2-amine]
27 | 0.031 µM | Cc1cc(-c2c(OCCc3ccc(N4CCN(C5COC5)CC4)cc3)nc(N)nc2-c2ccc(F)cc2)cc(C(F)F)n1 [Example 64, 5-[2-(difluoromethyl)-6-methylpyridin-4-yl]-4-(4-fluorophenyl)-6-(2-[4-[4-(oxetan-3-yl)piperazin-1-yl]phenyl]ethoxy)pyrimidin-2-amine]
28 | 0.041 µM | COC(=O)Nc1ccc(CCOc2nc(N)nc(-c3ccc(F)cc3)c2-c2cc(C)nc(C(F)F)c2)cc1 [Example 72, Methyl(4-(2-((2-amino-5-(2-(difluoromethyl)-6-methylpyridin-4-yl)-6-(4-fluorophenyl)pyrimidin-4-yl)oxy)ethyl)phenyl)carbamate]
29 | > 1 µM | Cc1cc(-c2c(OCC(O)C(C)(C)O)nc(N)nc2-c2ccc(F)cc2)cc(C(F)F)n1 (stereo not drawn) [Example 91, 1-((2-amino-5-(2-(difluoromethyl)-6-methylpyridin-4-yl)-6-(4-fluorophenyl)pyrimidin-4-yl)oxy)-3-methylbutane-2,3-diol]
30 | 0.133 µM | Cc1cc(-c2c(OCCc3ccc(C#N)cc3)nc(N)nc2-c2ccc(F)cc2)cc(C(F)F)n1 [Example 93, 4-(2-((2-amino-5-(2-(difluoromethyl)-6-methylpyridin-4-yl)-6-(4-fluorophenyl)pyrimidin-4-yl)oxy)ethyl)benzonitrile]
